Reference: patent US7772241B2, “Variolin derivatives and their use as antitumor agents” (Pharma Mar S.A., priority 2001, dated 2010)
Like-named read-outs stand apart in the source and are kept apart here.

Experiments:
HMEC1 = assay: Inhibition of cells growth by colorimetric (SRB) assay, HMEC1; conditions: SRB assay, 48 hours exposure
Text: (§1) The finality of these assays is to interrupt the growth of a “in vitro” tumor cell culture by means a continued exhibition of the cells to the sample to be testing.
(§2) This form of the assay employs 96 well cell culture microplates of 9 mm diameter (Faircloth, 1988; Mosmann, 1983). Most of the cell lines are obtained from American Type Culture Collection (ATCC) derived from different human cancer types.
(§3) Cells are maintained in RPMI 1640 10% FBS, supplemented with 0.1 g/l penicillin and 0.1 g/l streptomycin sulphate and then incubated at 37° C., 5% CO2 and 98% humidity. For the experiments, cells were harvested from subconfluent cultures using trypsin and resuspended in fresh medium before plating.
(§4) Cells are seeded in 96 well microtiter plates, at 5×10^3 cells per well in aliquots of 195 μl medium, and they are allowed to attach to the plate surface by growing in drug free medium for 18 hours. Afterward, samples are added in aliquots of 5 μl in a ranging from 10 to 10^−8 μg/ml, dissolved in DMSO/EtOH/PBS (0.5:0.5:99). After 48 hours exposure, the antitumor effect are measured by the SRB methodology: cells are fixed by adding 50 μl of cold 50% (wt/vol) trichloroacetic acid (TCA) and incubating for 60 minutes at 4° C. Plates are washed with deionized water and dried. One hundred μl of SRB solution (0.4% wt/vol in 1% acetic acid) is added to each microtiter well and incubated for 10 minutes at room temperature. Unbound SRB is removed by washing with 1% acetic acid. Plates are air dried and bound stain is solubilized with Tris buffer. Optical densities are read on a automated spectrophotometric plate reader at a single wavelength of 490 nm.
(§5) The values for mean +/−SD of data from triplicate wells are calculated. Some parameters for cellular responses can be calculated: GI=growth inhibition, TGI=total growth inhibition (cytostatic effect) and LC=cell killing (cytotoxic effect).

A-549 = assay: Inhibition of cells growth by colorimetric (SRB) assay, A-549
Procedure, shortened: (§6)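 Read-out is sulforhodamine B protein stain (OD 490 nm) after cold TCA fixation, following 48 h continuous exposure to samples spanning 10 to 10^−8 μg/ml.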

HT-29 = assay: Inhibition of cells growth by colorimetric (SRB) assay, HT-29
Procedure, shortened: as §6

SK-MEL-28 = assay: Inhibition of cells growth by colorimetric (SRB) assay, SK-MEL-28; conditions: for CC50: read-out: LC50 MEL-28, SRB assay, 48 hours exposure
Procedure, shortened: as §6

LoVo = assay: Inhibition of cells growth by colorimetric (SRB) assay, LoVo; conditions: for CC50: read-out: LC50 LOVO, SRB assay, 48 hours exposure
Procedure, shortened: as §6

PANC-1 = assay: Inhibition of cells growth by colorimetric (SRB) assay, PANC-1; conditions: for CC50: read-out: LC50 PANC-1, SRB assay, 48 hours exposure
Procedure, shortened: as §6

K-562 = assay: Inhibition of cells growth by colorimetric (SRB) assay, K-562; conditions: for GI50 / CC50: Homo sapiens, K562, 48 h; for GI50: read-out: GI50 K-562, SRB assay, 48 hours exposure; for CC50: read-out: LC50 K-562, SRB assay, 48 hours exposure; for TGI K-562: SRB assay, 48 hours exposure
Procedure, shortened: as §6

LNCaP = assay: Inhibition of cells growth by colorimetric (SRB) assay, LNCaP
Procedure, shortened: as §6

DU-145 = assay: Inhibition of cells growth by colorimetric (SRB) assay, DU-145; conditions: for CC50: read-out: LC50 DU-145, SRB assay, 48 hours exposure
Procedure, shortened: as §6

LoVo-Dox = assay: Inhibition of cells growth by colorimetric (SRB) assay, LoVo-Dox; conditions: for GI50 / CC50: Homo sapiens, 48 h; for GI50: read-out: GI50 LOVO-DOX, SRB assay, 48 hours exposure; for CC50: read-out: LC50 LOVO-DOX, SRB assay, 48 hours exposure; for TGI LOVO-DOX: SRB assay, 48 hours exposure
Procedure, shortened: as §6

SK-BR-3 = assay: Inhibition of cells growth by colorimetric (SRB) assay, SK-BR-3; conditions: for CC50: read-out: LC50 SK-BR-3, SRB assay, 48 hours exposure
Text: as §1, §2, §3, §4, §5

SK-OV-3 = assay: Inhibition of cells growth by colorimetric (SRB) assay, SK-OV-3; conditions: for CC50: read-out: LC50 SKOV-3, SRB assay, 48 hours exposure
Procedure, shortened: as §6

IGROV-1 = assay: Inhibition of cells growth by colorimetric (SRB) assay, IGROV-1
Procedure, shortened: as §6

IGROV-ET = assay: Inhibition of cells growth by colorimetric (SRB) assay, IGROV-ET; conditions: for CC50: read-out: LC50 IGROV-ET, SRB assay, 48 hours exposure
Procedure, shortened: as §6

[1] = read-out: GI50 A-549, SRB assay, 48 hours exposure
[2] = Homo sapiens, A549, 48 h, read-out: LC50 A-549, SRB assay, 48 hours exposure
[3] = Homo sapiens, HT-29, 48 h, read-out: GI50 HT-29, SRB assay, 48 hours exposure
[4] = Homo sapiens, HT-29, 48 h, read-out: LC50 HT-29, SRB assay, 48 hours exposure

COc1cccc(-c2c3cccnc3n3c(N)nccc23)c1 [Compound 62]
TGI H-MEC-1 (HMEC1; in M (unit assumed)): 3.44E−05
GI50 (HMEC1; read-out: GI50 H-MEC-1): 34.4 µM
CC50 (HMEC1; read-out: LC50 H-MEC-1): 34.4 µM
A-549 TGI (A-549; SRB assay, 48 hours exposure): 3.44E−05
CC50 (A-549; read-out: A-549 LC50, SRB assay, 48 hours exposure): 34.4 µM
GI50 (A-549; [1]): 34.4 µM
HT-29 TGI (HT-29; SRB assay, 48 hours exposure): 3.44E−05
GI50 (HT-29; read-out: HT-29 GI50, SRB assay, 48 hours exposure): 34.4 µM
CC50 (HT-29; read-out: HT-29 LC50, SRB assay, 48 hours exposure): 34.4 µM

Nc1nccc2c(-c3ccncn3)c3c(O)ccnc3n12 [Compound 100]
CC50 (SK-MEL-28; Homo sapiens, SK-MEL-28, 48 h): ≥ 25.5 µM
TGI MEL-28 (SK-MEL-28; SRB assay, 48 hours exposure): 8.08E−06
GI50 (SK-MEL-28; read-out: GI50 MEL-28, SRB assay, 48 hours exposure): 1.32 µM
CC50 (LoVo; Homo sapiens, LoVo, 48 h): ≥ 25.5 µM
TGI LOVO (LoVo; SRB assay, 48 hours exposure): 5.12E−06
GI50 (LoVo; read-out: GI50 LOVO, SRB assay, 48 hours exposure): 0.877 µM
CC50 (PANC-1; Homo sapiens, PANC-1, 48 h): ≥ 25.5 µM
TGI PANC-1 (PANC-1; SRB assay, 48 hours exposure): 2.55E−05
GI50 (PANC-1; read-out: GI50 PANC-1, SRB assay, 48 hours exposure): 4.92 µM
GI50 (K-562): 6.78 µM
CC50 (K-562): ≥ 25.5 µM
TGI K-562 (K-562): 1.49E−05
TGI LN-caP (LNCaP; SRB assay, 48 hours exposure): 3.29E−06
GI50 (LNCaP; read-out: GI50 LN-caP, SRB assay, 48 hours exposure): 1.05 µM
CC50 (LNCaP; read-out: LC50 LN-caP, SRB assay, 48 hours exposure): 10.9 µM
CC50 (DU-145; Homo sapiens, DU-145, 48 h): ≥ 25.5 µM
TGI DU-145 (DU-145; SRB assay, 48 hours exposure): 5.25E−06
GI50 (DU-145; read-out: GI50 DU-145, SRB assay, 48 hours exposure): 0.739 µM
CC50 (A-549; [2]): ≥ 25.5 µM
TGI A-549 (A-549; SRB assay, 48 hours exposure): 2.63E−06
GI50 (A-549; [1]): 0.678 µM
GI50 (LoVo-Dox): 1.18 µM
CC50 (LoVo-Dox): ≥ 25.5 µM
TGI LOVO-DOX (LoVo-Dox): 1.30E−05
CC50 (SK-BR-3; Homo sapiens, SK-BR-3, 48 h): 10.6 µM
TGI SK-BR-3 (SK-BR-3; SRB assay, 48 hours exposure): 1.52E−06
GI50 (SK-BR-3; read-out: GI50 SK-BR-3, SRB assay, 48 hours exposure): 0.464 µM
GI50 (HT-29; [3]): 14.9 µM
CC50 (HT-29; [4]): ≥ 25.5 µM
TGI HT-29 (HT-29; SRB assay, 48 hours exposure): 2.55E−05
CC50 (SK-OV-3; Homo sapiens, SK-OV-3, 48 h): ≥ 25.5 µM
TGI SKOV-3 (SK-OV-3; SRB assay, 48 hours exposure): 9.84E−06
GI50 (SK-OV-3; read-out: GI50 SKOV-3, SRB assay, 48 hours exposure): 1.74 µM
TGI IGROV (IGROV-1; SRB assay, 48 hours exposure): 4.69E−06
GI50 (IGROV-1; read-out: GI50 IGROV, SRB assay, 48 hours exposure): 1.4 µM
CC50 (IGROV-1; read-out: LC50 IGROV, SRB assay, 48 hours exposure): 13.2 µM
CC50 (IGROV-ET; Homo sapiens, 48 h): 22.9 µM
TGI IGROV-ET (IGROV-ET; SRB assay, 48 hours exposure): 2.33E−06
GI50 (IGROV-ET; read-out: GI50 IGROV-ET, SRB assay, 48 hours exposure): 0.683 µM

COc1nccc(-c2c3c(O)ccnc3n3c(N)nccc23)n1 [Compound 105]
GI50 (SK-MEL-28; Homo sapiens, SK-MEL-28, 48 h, read-out: GI50 MEL-28, SRB assay, 48 hours exposure): 13.8 µM
CC50 (SK-MEL-28; Homo sapiens, SK-MEL-28, 48 h): 32.4 µM
TGI MEL-28 (SK-MEL-28; SRB assay, 48 hours exposure): 3.24E−05
GI50 (LoVo; Homo sapiens, LoVo, 48 h, read-out: GI50 LOVO, SRB assay, 48 hours exposure): 14.3 µM
CC50 (LoVo; Homo sapiens, LoVo, 48 h): 32.4 µM
TGI LOVO (LoVo; SRB assay, 48 hours exposure): 3.24E−05
GI50 (PANC-1; Homo sapiens, PANC-1, 48 h, read-out: GI50 PANC-1, SRB assay, 48 hours exposure): 11.8 µM
CC50 (PANC-1; Homo sapiens, PANC-1, 48 h): 32.4 µM
TGI PANC-1 (PANC-1; SRB assay, 48 hours exposure): 3.24E−05
GI50 (K-562): 12.8 µM
CC50 (K-562): 32.4 µM
TGI K-562 (K-562): 2.93E−05
GI50 (LNCaP; Homo sapiens, LNCaP, 48 h, read-out: GI50 LN-caP, SRB assay, 48 hours exposure): 5.48 µM
CC50 (LNCaP; Homo sapiens, LNCaP, 48 h, read-out: LC50 LN-caP, SRB assay, 48 hours exposure): 32.4 µM
TGI LN-caP (LNCaP; SRB assay, 48 hours exposure): 1.75E−05
GI50 (DU-145; Homo sapiens, DU-145, 48 h, read-out: GI50 DU-145, SRB assay, 48 hours exposure): 14.2 µM
CC50 (DU-145; Homo sapiens, DU-145, 48 h): 32.4 µM
TGI DU-145 (DU-145; SRB assay, 48 hours exposure): 3.24E−05
GI50 (A-549; Homo sapiens, A549, 48 h, read-out: GI50 A-549, SRB assay, 48 hours exposure): 7.49 µM
CC50 (A-549; [2]): 32.4 µM
TGI A-549 (A-549; SRB assay, 48 hours exposure): 3.24E−05
GI50 (LoVo-Dox): 21.9 µM
CC50 (LoVo-Dox): 32.4 µM
TGI LOVO-DOX (LoVo-Dox): 3.24E−05
GI50 (SK-BR-3; Homo sapiens, SK-BR-3, 48 h, read-out: GI50 SK-BR-3, SRB assay, 48 hours exposure): 2.42 µM
CC50 (SK-BR-3; Homo sapiens, SK-BR-3, 48 h): 32.4 µM
TGI SK-BR-3 (SK-BR-3; SRB assay, 48 hours exposure): 1.26E−05
GI50 (HT-29; [3]): 32.4 µM
CC50 (HT-29; [4]): 32.4 µM
TGI HT-29 (HT-29; SRB assay, 48 hours exposure): 3.24E−05
GI50 (SK-OV-3; Homo sapiens, SK-OV-3, 48 h, read-out: GI50 SKOV-3, SRB assay, 48 hours exposure): 8.14 µM
CC50 (SK-OV-3; Homo sapiens, SK-OV-3, 48 h): 32.4 µM
TGI SKOV-3 (SK-OV-3; SRB assay, 48 hours exposure): 2.91E−05
GI50 (IGROV-1; Homo sapiens, IGROV-1, 48 h, read-out: GI50 IGROV, SRB assay, 48 hours exposure): 6.26 µM
CC50 (IGROV-1; Homo sapiens, IGROV-1, 48 h, read-out: LC50 IGROV, SRB assay, 48 hours exposure): 27.5 µM
TGI IGROV (IGROV-1; SRB assay, 48 hours exposure): 1.31E−05
GI50 (IGROV-ET; Homo sapiens, 48 h, read-out: GI50 IGROV-ET, SRB assay, 48 hours exposure): 8.17 µM
CC50 (IGROV-ET; Homo sapiens, 48 h): 32.4 µM
TGI IGROV-ET (IGROV-ET; SRB assay, 48 hours exposure): 2.23E−05
